From patent US20250127159A1, “PAPER-BASED CRYOPRESERVATION OF MAMMALIAN CELL AGGREGATES” (New York University in Abu Dhabi Corporation, priority 2023, published 2025)

Experiments:
U87 spheroids [1] = test: live/dead viability assay of U87 spheroids at 48 hours
Method: (§1) The spheroids were subjected to drug testing at varying concentrations, with DMSO serving as a solvent control. This experimental approach aimed to dissect the impact of both DMSO and drug compounds on the metabolic activity and viability of U87 spheroids.
(§2) Control tests were first conducted with DMSO at concentrations of 1%, 2.5%, 5%, 10%, and 20% (v/v) to assess its cytotoxic effects independently of drug action. The metabolic activity of the spheroids was monitored at 0, 6, 12, 24, and 48 hours, followed by a live/dead assay at 48 hours to assess cell viability.
(§3) Spheroid metabolic activity was measured at 6, 12, 24, and 48 hours using the WST-1 assay, and viability was assessed at 48 hours via the live/dead assay.

U87 spheroids [2] = test: WST-1 metabolic activity of U87 spheroids under drug or DMSO treatment; type: cell-based
Method: as §1, §2, §3

in vitro = conditions: human
Method: as §1, §2, §3

With `C[S+](C)[O-]` [DMSO, dimethyl sulfoxide] the cell viability (U87 spheroids [1]; 10% and 20% DMSO, particularly in cryopreserved samples) was “viability decreased”, the metabolic activity (U87 spheroids [2]; cryopreserved spheroids, 10% and 20% DMSO) was “declining sharply” and the metabolic activity (U87 spheroids [2]; normally grown spheroids, 1% DMSO (v/v), over 48 hours) was “linear increase in metabolic activity”. The metabolic activity (U87 spheroids [2]; normally grown spheroids, higher concentrations (5%, 10%, 20% DMSO)) was “temporary reductions in metabolic activity at the 6-hour mark, followed by partial recovery”, the viability at 48 h, 1 % (v/v) (in vitro) was over 99% and the viability at 48 h, 5 % (v/v) (in vitro) was over 99%. The viability at 48 h, 10 % (v/v) (in vitro) was under 50% and the viability at 48 h, 20 % (v/v) (in vitro) was 5%.

For `Cn1nnc2c(C(N)=O)ncn2c1=O` [TMZ], the viability (U87 spheroids [1]; 400 μM) was “below 30%”, the viability (U87 spheroids [1]; 800 μM) was “below 30%” and the “metabolic activity and viability compared to normally grown spheroids” value (U87 spheroids [2]; cryopreserved spheroids, comparable doses) was “slightly higher metabolic activity and viability”. The response timing (U87 spheroids [2]; cryopreserved spheroids, more substantial reductions at 400 μM and 800 μM) was “slightly delayed responses” and the metabolic activity (U87 spheroids [2]; doses ≥100 μM, both normal and cryopreserved spheroids) was “metabolic activity was suppressed”.

In the case of `N.N.[Cl][Pt][Cl]` [Cisplatin], the “response at higher doses” value (U87 spheroids [2]; cryopreserved spheroids, 10 μM and above) is reported as “delayed response”, the metabolic activity (U87 spheroids [2]; cryopreserved spheroids, doses as low as 0.1 μM) is reported as “metabolic activity decreasing” and the metabolic activity (U87 spheroids [2]; normally grown spheroids, doses ≥10 μM) is reported as “significantly reduced metabolic activity”.
